According to patent US20090069565A1, “NEW INDOLE DERIVATIVES AS FACTOR XA INHIBITORS” (priority 2001, published 2009):

molecular target: human factor Xa (Homo sapiens, UniProt P00742); assay: Factor Xa assay (chromogenic, substrate S-2765); format: biochemical; details: not given;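 note: purified enzyme preincubated with inhibitor for 10 min before substrate addition, final reaction volume 100 µl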
Sequence (P00742 235-488 limits assumed): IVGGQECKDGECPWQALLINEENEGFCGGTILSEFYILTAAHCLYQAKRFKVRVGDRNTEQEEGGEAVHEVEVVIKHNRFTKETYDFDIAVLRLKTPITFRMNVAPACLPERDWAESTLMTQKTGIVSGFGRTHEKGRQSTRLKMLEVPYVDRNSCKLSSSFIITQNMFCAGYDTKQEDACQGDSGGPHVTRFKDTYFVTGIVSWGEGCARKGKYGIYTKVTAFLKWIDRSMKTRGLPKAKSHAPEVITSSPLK
Sequence (P00742 41-179 partner limits assumed): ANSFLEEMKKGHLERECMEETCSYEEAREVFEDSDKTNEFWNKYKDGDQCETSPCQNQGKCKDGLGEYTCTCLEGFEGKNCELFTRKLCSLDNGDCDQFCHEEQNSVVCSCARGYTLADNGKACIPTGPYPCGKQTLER

| Structure (SMILES) | Ki [nM] |
| --- | --- |
| CC(C)N1CCC(NC(=O)c2c(C#N)c3ccccc3n2Cc2cc(-c3ccc(Cl)s3)on2)CC1 [Example 160, 1-[5-(5-Chloro-thiophen-2-yl)-isoxazol-3-ylmethyl]-3-cyano-1H-indole-2-carboxylic acid (1-isopropyl-piperidin-4-yl)-amide] | 0.1 |
| Cc1cccc2c(C#N)c(C(=O)NC3CCN(C(C)C)CC3)n(Cc3cc(-c4ccc(Cl)s4)on3)c12 [Example 161, 1-[5-(5-Chloro-thiophen-2-yl)-isoxazol-3-ylmethyl]-3-cyano-7-methyl-1H-indole-2-carboxylic acid (1-isopropyl-piperidin-4-yl)-amide] | 0.1 |
| Cc1ccc(C)c2c1cc(C(=O)NC1CCN(C(C)C)CC1)n2Cc1cc(-c2ccc(Cl)s2)on1 [Example 178, 1-[5-(5-Chloro-thiophen-2-yl)-isoxazol-3-ylmethyl]-4,7-dimethyl-1H-indole-2-carboxylic acid (1-isopropyl-piperidin-4-yl)-amide] | 1.3 |
| CC(C)N1CCC(NC(=O)c2cc3c(Cl)cccc3n2Cc2cc(-c3ccc(Cl)s3)on2)CC1 [Example 182, 4-Chloro-1-[5-(5-chloro-thiophen-2-yl)-isoxazol-3-ylmethyl]-1H-indole-2-carboxylic acid (1-isopropyl-piperidin-4-yl)-amide] | 5 |

same assay, conditions: inhibition constant for factor Xa; purified enzyme 0.5 nM, substrate S-2765 140 μM, 25° C., pH 7.8; Ki=IC50/{1+(substrate concentration/Km)}; read-out: Ki(FXa)

| Structure (SMILES) | Ki [nM] |
| --- | --- |
| CC(C)N1CCC(NC(=O)c2cc3ccccc3n2Cc2cc3ccc(Cl)cc3s2)CC1 [Example 119, 1-(6-Chloro-benzo[b]thiophen-2-ylmethyl)-1H-indole-2-carboxylic acid (1-isopropyl-piperidin-4-yl)-amide] | 40 |
| CC(C)N1CCC(NC(=O)c2cc3ccccc3n2Cc2nnc(-c3ccc(Cl)s3)s2)CC1 [Example 120, 1-[5-(5-Chloro-thiophen-2-yl)-[1,3,4]thiadiazol-2-ylmethyl]-1H-indole-2-carboxylic acid (1-isopropyl-piperidin-4-yl)-amide] | 4 |
| CC(C)N1CCC(NC(=O)c2cc3ccccc3n2Cc2cc(-c3ccc(Cl)s3)no2)CC1 [Example 121, 1-[3-(5-Chloro-thiophen-2-yl)-isoxazol-5-ylmethyl]-1H-indole-2-carboxylic acid (1-isopropyl-piperidin-4-yl)-amide] | 3 |
| CC(C)N1CCC(NC(=O)c2c(Cl)c3ccccc3n2Cc2cc(-c3ccc(Cl)s3)on2)CC1 [Example 122, 3-Chloro-1-[5-(5-chloro-thiophen-2-yl)-isoxazol-3-ylmethyl]-1H-indole-2-carboxylic acid (1-isopropyl-piperidin-4-yl)-amide] | 2 |
| CC(C)N1CCC(NC(=O)c2c(Br)c3ccccc3n2Cc2cc(-c3ccc(Cl)s3)on2)CC1 [Example 123, 3-Bromo-1-[5-(5-chloro-thiophen-2-yl)-isoxazol-3-ylmethyl]-1H-indole-2-carboxylic acid (1-isopropyl-piperidin-4-yl)-amide] | 2 |
| CC(C)N1CCC(NC(=O)c2c(F)c3ccccc3n2Cc2cc(-c3ccc(Cl)s3)on2)CC1 [Example 159, 3-Fluoro-1-[5-(5-chloro-thiophen-2-yl)-isoxazol-3-ylmethyl]-1H-indole-2-carboxylic acid (1-isopropyl-piperidin-4-yl)-amide] | 2 |
| CC(C)N1CCC(NC(=O)c2cc3ccccc3n2Cc2cnc(-c3ccc(Cl)s3)s2)CC1 [Example 162] | 57 |
| CC(C)N1CCC(NC(=O)c2cc3ccccc3n2Cc2cccc(Cl)c2)CC1 [Example 163, 1-(3-Chloro-benzyl)-1H-indole-2-carboxylic acid (1-isopropyl-piperidin-4-yl)-amide] | 654 |
| CC(C)N1CCC(NC(=O)c2cc3ccccc3n2CCc2ccc(Cl)cc2)CC1 [Example 169, 1-[2-(4-Chloro-phenyl)-ethyl]-1H-indole-2-carboxylic acid (1-isopropyl-piperidin-4-yl)-amide] | 73 |
| CC(C)N1CCC(NC(=O)c2cc3ccccc3n2CCc2ccc(Cl)cc2Cl)CC1 [Example 170, 1-[2-(2,4-Dichloro-phenyl)-ethyl]-1H-indole-2-carboxylic acid (1-isopropyl-piperidin-4-yl)-amide] | 470 |
| Cc1cccc2c1cc(C(=O)NC1CCN(C(C)C)CC1)n2Cc1cc(-c2ccc(Cl)s2)on1 [Example 174, 1-[5-(5-Chloro-thiophen-2-yl)-isoxazol-3-ylmethyl]-4-methyl-1H-indole-2-carboxylic acid (1-isopropyl-piperidin-4-yl)-amide] | 3 |
| CC(C)N1CCC(NC(=O)c2cc3cc(C#N)ccc3n2Cc2cc(-c3ccc(Cl)s3)on2)CC1 [Example 176, 1-[5-(5-Chloro-thiophen-2-yl)-isoxazol-3-ylmethyl]-5-cyano-1H-indole-2-carboxylic acid (1-isopropyl-piperidin-4-yl)-amide] | 2 |
| CCC(CC)N1CCC(NC(=O)c2cc3ccccc3n2Cc2cc(-c3ccc(Cl)s3)on2)CC1 [Example 186, 1-[5-(5-Chloro-thiophen-2-yl)-isoxazol-3-ylmethyl]-1H-indole-2-carboxylic acid [1-(1-ethyl-propyl)-piperidin-4-yl]-amide] | 220 |
| CN1CCC(NC(=O)c2cc3ccccc3n2Cc2cc(-c3ccc(Cl)s3)on2)CC1 [Example 187, 1-[5-(5-Chloro-thiophen-2-yl)-isoxazol-3-ylmethyl]-1H-indole-2-carboxylic acid (1-methyl-piperidin-4-yl)-amide] | 40 |

same assay, conditions: read-out: Ki(FXa)

| Structure (SMILES) | Ki [nM] |
| --- | --- |
| CC(C)N1CCC(NC(=O)c2cc3ccccc3n2Cc2ccc(OC(F)(F)F)cc2)CC1 [Example 146, 1-(4-Trifluoromethoxy-benzyl)-1H-indole-2-carboxylic acid (1-isopropyl-piperidin-4-yl)-amide] | 440 |
| CC(C)N1CCC(NC(=O)c2cc3ccccc3n2Cc2ccccc2Cl)CC1 [Example 148, 1-(2-Chloro-benzyl)-1H-indole-2-carboxylic acid (1-isopropyl-piperidin-4-yl)-amide] | 1930 |
| CC(C)N1CCC(NC(=O)c2cc3ccccc3n2Cc2cc(Cl)cc(Cl)c2)CC1 [Example 157, 1-(3,5-Dichloro-benzyl)-1H-indole-2-carboxylic acid (1-isopropyl-piperidin-4-yl)-amide] | 686 |
| CC(C)N1CCC(NC(=O)c2cc3ccccc3n2Cc2cccc(C(N)=O)c2)CC1 [Example 165, 1-(3-Carbamoyl-benzyl)-1H-indole-2-carboxylic acid (1-isopropyl-piperidin-4-yl)-amide] | 765 |
| COc1cccc2c1cc(C(=O)NC1CCN(C(C)C)CC1)n2CCc1ccc(Cl)cc1 [Example 172, 1-[2-(4-Chloro-phenyl)-ethyl]-4-methoxy-1H-indole-2-carboxylic acid (1-isopropyl-piperidin-4-yl)-amide] | 41 |
| CC(C)N1CCC(NC(=O)c2cc3c(Br)cccc3n2Cc2cc(-c3ccc(Cl)s3)on2)CC1 [Example 173, 4-Bromo-1-[5-(5-chloro-thiophen-2-yl)-isoxazol-3-ylmethyl]-1H-indole-2-carboxylic acid (1-isopropyl-piperidin-4-yl)-amide] | 15 |
| CC(C)N1CCC(NC(=O)c2cc3c(C(F)(F)F)cccc3n2Cc2cc(-c3ccc(Cl)s3)on2)CC1 [Example 177, 1-[5-(5-Chloro-thiophen-2-yl)-isoxazol-3-ylmethyl]-4-trifluoromethyl-1H-indole-2-carboxylic acid (1-isopropyl-piperidin-4-yl)-amide] | 15 |
| COc1ccc(OC)c2c1cc(C(=O)NC1CCN(C(C)C)CC1)n2Cc1cc(-c2ccc(Cl)s2)on1 [Example 179, 1-[5-(5-Chloro-thiophen-2-yl)-isoxazol-3-ylmethyl]-4,7-dimethoxy-1H-indole-2-carboxylic acid (1-isopropyl-piperidin-4-yl)-amide] | 5.5 |
| CC(C)N1CCC(NC(=O)c2cc3c(Cl)ccc(Cl)c3n2Cc2cc(-c3ccc(Cl)s3)on2)CC1 [Example 180, 4,7-Dichloro-1-[5-(5-chloro-thiophen-2-yl)-isoxazol-3-ylmethyl]-1H-indole-2-carboxylic acid (1-isopropyl-piperidin-4-yl)-amide] | 24 |
| CC(C)N1CCC(NC(=O)c2cc3cc(Cl)cc(Cl)c3n2Cc2cc(-c3ccc(Cl)s3)on2)CC1 [Example 181, 5,7-Dichloro-1-[5-(5-chloro-thiophen-2-yl)-isoxazol-3-ylmethyl]-1H-indole-2-carboxylic acid (1-isopropyl-piperidin-4-yl)-amide] | 14 |
| CN1CCN(NC(=O)c2cc3ccccc3n2Cc2cc(-c3ccc(Cl)s3)on2)CC1 [Example 183, 1-[5-(5-Chloro-thiophen-2-yl)-isoxazol-3-ylmethyl]-1H-indole-2-carboxylic acid (4-methyl-piperazin-1-yl)-amide] | 76 |
| CCOC(=O)CN(C(=O)c1cc2cccc(C)c2n1Cc1cc(-c2ccc(Cl)s2)on1)C1CCN(C(C)C)CC1 [Example 184, [{1-[5-(5-Chloro-thiophen-2-yl)-isoxazol-3-ylmethyl]-7-methyl-1H-Indole-2-carbonyl}-(1-isopropyl-piperidin-4-yl)-amino]-acetic acid ethyl ester] | 13 |
| Cc1cccc2cc(C(=O)N(CC(=O)O)C3CCN(C(C)C)CC3)n(Cc3cc(-c4ccc(Cl)s4)on3)c12 [Example 185, [{1-[5-(5-Chloro-thiophen-2-yl)-isoxazol-3-ylmethyl]-7-methyl-1H-indole-2-carbonyl}-(1-isopropyl-piperidin-4-yl)-amino]-acetic acid] | 5 |
| O=C(NC1CCN(CC(F)(F)F)CC1)c1cc2ccccc2n1Cc1cc(-c2ccc(Cl)s2)on1 [Example 188, 1-[5-(5-Chloro-thiophen-2-yl)-isoxazol-3-ylmethyl]-1H-indole-2-carboxylic acid [1-(2,2,2-trifluoro-ethyl)-piperidin-4-yl]-amide] | 1030 |
| O=CN1CCC(NC(=O)c2cc3ccccc3n2Cc2cc(-c3ccc(Cl)s3)on2)CC1 [Example 189, 1-[5-(5-Chloro-thiophen-2-yl)-isoxazol-3-ylmethyl]-1H-indole-2-carboxylic acid (1-formyl-piperidin-4-yl)-amide] | 2020 |
